Experimental data: patent publication US11912793B2, “Polypeptide and application thereof in bone repair” (SICHUAN UNIVERSITY, priority 2022, dated 2024)

How the values were obtained:
calvarial defects = assay: Calvarial defect implantation of polypeptide-modified GelMA, H&E and Goldner's trichrome staining; type: in vivo, SD male rats; conditions: GelMA scaffold with peptide 0.1 mg/mL, 5 mm calvarial defect, 4 weeks post-implantation
Description: • 2.1 GelMA Preparation: gelatin was fully dissolved in phosphate-buffered saline (PBS) at 60° C. with a concentration of 10% (w/v). […] Double PBS was added to the mixture to stop the reaction. The solution was dialyzed against distilled water using 12-14 kDa dialysis tubing for 1 week. The obtained GelMA solution was frozen at −20° C. overnight and lyophilized for 72 h to get sponge GelMA. • 2.2 Polypeptide modification: 2 g lyophilized GelMA was dissolved in 10 mL PBS containing 0.1% (w/v) photoinitiator LAP at 60° C. Then, either a control peptide or GS18 was added to achieve a final concentration of 0.1 mg/mL. The above mixture was injected into the mold (20 μL/hole) and exposed to ultraviolet irradiation (6.9 W/cm^2, 360-489 nm) for 2 min at room temperature. Once solidified, the materials were carefully detached from the mold and placed on ice for use. • 2.3 Result verification: photographs were captured to depict the morphological characteristics of the polypeptide-modified GelMA after it was separated from the mold.
• 3.1 Sample preparation: the GelMA scaffold was utilized to encapsulate either GS18 or control peptide at a concentration of 0.1 mg/mL, resulting in a total volume of 0.02 cm^3. • 3.2 Animal model: 12-week-old SD male rats (about 320±20 g each) were used. Each group contained 3 rats. Rats were anesthetized with 2% pentobarbital via abdominal injection. The rats were positioned in the prone position. An electric razor was utilized to remove fur from the cranial region. Following this, the surgical sites were thoroughly cleansed with iodophor for disinfection. To maintain a sterile condition, disposable towels were carefully placed over the surgical regions. Starting from the nasal bone, a longitudinal skin incision of 1.5-2.0 cm was made along the midline of the top of the head. The subcutaneous tissue was gently separated with the handle of a surgical knife. The periosteum was meticulously incised along the sagittal suture of the cranium and subsequently separated to fully expose the parietal bone, occipital bone, and part of the frontal bone. Bilateral full-thickness circular calvarial defects (diameter=5 mm) were generated using a trephine. Sterilized materials were implanted into the defect sites. The experimental group was implanted with GS18-modified GelMA, While the control group was implanted with control peptide-modified GelMA. Finally, the skin was reset, sutured, and disinfected. • 3.3 Tissue slices: after 4 weeks, the rats were sacrificed. […] The paraffin tissue slices were heated at 65° C., dewaxed, hydrated with xylene and gradient ethanol, and stained with H&E and Goldner's trichrome staining for histological evaluation.

[1] = test system: osteogenesis-oriented BMSCs (pre-osteoblasts); assay: In vitro osteogenic differentiation, Von kossa staining; type: cell-based, C57BL/6 male mice; conditions: 5 days OM pretreatment, then 14 days peptide-containing OM, compared with the control peptide
Description: • 1.1 Cell culture: primary bone mesenchymal stem cells (BMSCs) extracted from the long bones of 3-week-old C57BL/6 male mice were selected, cultured at 37° C. in a humidified atmosphere with 5% CO2, and inoculated into a 24-well plate with 30000 cells/well. α-MEM supplemented with 5% FBS, 1% penicillin-streptomycin, […], 10 mM β-glycerophosphate, and 50 μg/mL L-ascorbic acid was used as the osteogenic medium (OM) for osteogenic induction. • 1.2 Cell induction: BMSCs were pretreated with OM for 5 days to achieve a determined osteogenic precursor cell state, followed by ongoing induction with peptide-containing OM for another 14 days. The experimental group used OM added with GS18, and the control group used OM added with the control peptide. GS18 was synthesized using a solid-phase polypeptide synthesis and was purified by HPLC (purity=96.59%). The amino acid sequence of the control peptide was shown as SEQ ID NO: 2, i.e. CKPLRLSKEEHPLK. The control peptide also adopted a solid-phase polypeptide synthesis method and used HPLC to purify products (purity=96.15%). […] The integrated density of calcium nodes (IntDen) and the percent of the calcified area to the total area (Area %) from five random areas were measured by Fiji. **p<0.01.

Wnt/β-catenin pathway = assay: Immunofluorescence staining of active β-catenin and osteocalcin in calvarial defects; type: in vivo, SD male rats; conditions: 4 weeks after implantation
Description: • 3.1 Sample preparation: the GelMA scaffold was utilized to encapsulate either GS18 or control peptide at a concentration of 0.1 mg/mL, resulting in a total volume of 0.02 cm^3. • 3.2 Animal model: 12-week-old SD male rats (about 320±20 g each) were used. Each group contained 3 rats. Rats were anesthetized with 2% pentobarbital via abdominal injection. The rats were positioned in the prone position. An electric razor was utilized to remove fur from the cranial region. Following this, the surgical sites were thoroughly cleansed with iodophor for disinfection. To maintain a sterile condition, disposable towels were carefully placed over the surgical regions. Starting from the nasal bone, a longitudinal skin incision of 1.5-2.0 cm was made along the midline of the top of the head. The subcutaneous tissue was gently separated with the handle of a surgical knife. […]
• 4.1 Antigen repair: the paraffin slices prepared in Embodiment 3.3 were heated at 65° C., dewaxed, hydrated with xylene and gradient ethanol, and immersed in the antigen repair buffer at 100° C. for 40 min. […] Subsequently, the sections were washed with PBS three times for 15 min each time and sealed by the anti-fluorescence quencher. • 4.3 Result verification: images of immunofluorescence staining were acquired using a confocal laser scanning microscope (CLSM, FV3000, Olympus, Japan).

Sequence | H&E staining: cellular growth / cell recruitment in the defect (FIG. 3) (calvarial defects) | H&E staining: fiber mineralization in the defect (FIG. 3) (calvarial defects) | formation of calcium deposits of pre-osteoblasts (FIG. 1B) [1] | maturation of calcium deposits of pre-osteoblasts (FIG. 1C) [1] | expression of Ocn in the defect area (FIG. 5) (Wnt/β-catenin pathway) | expression of active β-Catenin in newly formed tissues of the calvarial defects (FIG. 5) (Wnt/β-catenin pathway; compared to non-peptide-modified GelMA) | Goldner's trichrome staining: cellular growth / cell infiltration in the defect (FIG. 4) (calvarial defects)
GPGGDKCRCVFHWVCCYVS (GPGGDKCRCVFHWCCYVS; The sequence is synthetized) [GS18] | capacity to attract and recruit cells into the scaffolds | high degree of fiber mineralization | significantly increased | significantly increased | robust and widespread | significantly enhanced | –
CKPLRLSKEEHPLK (The sequence is synthetized) [control peptide, control peptide made by solid-phase polypeptide synthesis, reference compound] | noticeable lack of cellular growth in the central region of the defect | – | – | – | – | – | conspicuous paucity of cellular growth within the central region of the defect
